Assay results as given in US20010036933A1, “Water soluble lipidated arabinogalactan” (The University of Montana, priority 1996, published 2001).

Experiments:
[1] = Solubility of progesterone in water and in aqueous AG decanoate (UV absorption at 250 nm); assay type: physicochemical; conditions: 60° C. 10 min, then 25° C. 20 h
Description: Progesterone was heated with water at 60° C. for 10 min, then held at 25° C. for 20 h. […] When the above experiment was repeated with a 1% aqueous solution of AG decanoate (DS 2.59%) the saturated solution contained 4.7×10^−3% progesterone. In the UV analysis of the AG decanoate solution of the progesterone, the appropriate AG decanoate solution without progesterone was used as a spectrometer blank.

ovalbumin (“O.A.”) = assay: Assay of adjuvant activity: antibody formation in mice injected with ovalbumin plus arabinogalactan compound; assay type: in vivo; conditions: for adjuvant activity in antibody formation in comparison to the control: 25 μg ovalbumin in saline with 50, 10 or 2 μg compound, booster day 21, bled days 7, 14, 28, 35
Description: In the experiment, 25 μg of ovalbumin (“O.A.”) was injected into mice in a saline solution together with 50, 10, 2 or 0 μg (the control) of the arabinogalactan compounds. The animals were prebled prior to immunization; injected; bled on days 7 and 14; given a booster injection on day 21; and bled on days 28 and 35 for antibody determination.

[2] = system: neutrophil-HUVEC adhesion; assay: Neutrophil-HUVEC adhesion under physiological shear forces (closed-loop capillary tube, video-microscopy); assay type: cell-based, human; conditions: for effect on neutrophil rolling on activated HUVEC: 1-100 μg/ml
Description: The in vitro effects of Compound A-F listed in Table I on leucocyte and endothelial cell adhesion under physiological shear forces was examined as follows.
Human umbilical vein endothelial cells (HUVEC) were grown to confluence on the internal surface of collagen type I coated capillary tubes. Endothelial cells were stimulated for 4 hours with […] (10 ng, Genzyme), which upregulates adhesion molecules such as E-selectin within 4-6 hours. Neutrophils and lymphocytes were collected from normal human donors by venipuncture and separated from the blood on ficoll-histoplaque density gradients. The endothelial cell-coated tubes were then integrated into the closed-loop system. Leukocytes were infused into the assay system at a concentration of 1×10^6-5×10^6 cell/ml in DMEM plus 20 mM HEPES. Shear forces of 1-3 dynes/cm^2 (standard representation of blood flow) were applied via a variable speed peristaltic pump, and interactions between the leukocytes and endothelial cells were monitored by video-microscopy. Comparisons were made of the binding of leukocytes and endothelial cells treated with the 6 compounds and untreated controls.
To observe the effects of the compounds on neutrophil adhesive interactions, the neutrophils were infused and allowed to establish rolling for two minutes before the addition of the compounds. The compounds were added in increasing 1 μg/ml, 10 μg/ml, and 100 μg/ml final concentrations at 2 minute intervals. The interactions were recorded to video tape.

tumor metastases = conditions: mice; cited from earlier work
[3] = Formation of oil-water emulsions with water-soluble lipidated arabinogalactan; assay type: physicochemical

CC(=O)[C@H]1CC[C@H]2[C@@H]3CCC4=CC(=O)CC[C@]4(C)[C@H]3CC[C@]12C [Progesterone]
dissolved progesterone in saturated solution ([1]; 1% aqueous solution of AG decanoate (DS 2.59%)): 4.7×10^−3% | dissolved progesterone in saturated solution ([1]; water): 8.8×10^−4%

AG (ultrarefined) [Compound A, reference compound]
adjuvant activity in antibody formation in comparison to the control (ovalbumin (“O.A.”)): some adjuvant activity | effect on neutrophil rolling on activated HUVEC [2]: significantly blocked | reduction in neutrophil adhesion ([2]; during the time course, 1, 10, 100 μg/ml added at 2 minute intervals, IL-stimulated HUVEC): ~75% | reduction of neutrophil binding to baseline ([2]; even at 10 μg/ml or 100 μg/ml): did not reduce binding to baseline | effect on tumor metastases (tumor metastases): reduce tumor metastases

AG decanoate (DS 2.6%)
effect on neutrophil rolling on activated HUVEC [2]: no measurable effect

AG dodecyl ether (DS 1.3%) [F]
effect on neutrophil rolling on activated HUVEC [2]: no measurable effect

AG palmitate (DS 1.7%) [C]
adjuvant activity in antibody formation in comparison to the control (ovalbumin (“O.A.”)): some adjuvant activity | adjuvant activity, rank among the three arabinogalactan compounds (ovalbumin (“O.A.”); ovalbumin antigen): highest adjuvant activity | concentration effective in blocking neutrophil-HUVEC adhesion [2]: 1 µg/mL | effect on neutrophil rolling on activated HUVEC [2]: significantly blocked | stability of emulsion with safflower oil ([3]; 2 mL 1.0% aqueous solution mixed with safflower oil (4 g), room temperature): no separation of phases was evident after several days | behaviour on shaking with hexane ([3]; 2 mL 1% solution shaken with hexane (1 mL)): upper phase became extremely viscous and opaque and remained in this state for several days

AG palmitate [high substitution (DS 7.3%) AG palmitate]
adjuvant activity in antibody formation in comparison to the control (ovalbumin (“O.A.”)): some adjuvant activity

AG stearate (DS 1.7%) [B]
concentration effective in blocking neutrophil-HUVEC adhesion [2]: 1 µg/mL | effect on neutrophil rolling on activated HUVEC [2]: significantly blocked

galactan from fractional hydrolysis of AG (arabinose 1.5%)
effect on neutrophil rolling on activated HUVEC [2]: no measurable effect
